According to patent US6576620B2, “Method of identifying partial adenosine A1 receptor agonists” (CV Therapeutics, Inc., priority 1999, dated 2003):
Entries after “also recorded” stand apart in the source; their conditions may differ.

Legend:
[1] = tested on: guinea pig isolated heart; test: Coronary conductance, isolated heart; settings: for EC50: Cavia porcellus; for maximal increase of coronary conductance: this study, Compound 6 at 100 μM
Protocol: Coronary perfusion pressure (CPP) was measured using a pressure transducer, connected to the aortic cannula via a T-connector positioned approximately 3 cm above the heart. Coronary perfusion pressure was monitored throughout the experiment and recorded either on a chart recorder (Gould Recorder 2200S) or a computerized recording system (PowerLab/4S, ADInstruments Pty Ltd, Australia). Only hearts with CPP ranging from 60 to 85 mmHg (in the absence of drugs) were used in the study. Coronary conductance (in ml/min/mmHg) was calculated as the ratio between coronary perfusion rate (10 ml/min) and coronary perfusion pressure.
(§1) Guinea pigs (Hartley) of either sex weighing 300-350 g were anaesthetized with methoxyflurane and killed by decapitation. The chest was cut open and the heart was removed quickly and rinsed in ice-cold modified Krebs-Henseleit (K-H) solution. The contents of the modified K-H solution were (in mM): NaCl 117.9, KCl 4.8, CaCl2 2.5, MgSO2 1.18, KH2PO4 1.2, Na2 EDTA 0.5, ascorbic acid 0.14, dextrose 5.5, pyruvic acid (sodium salt) 2.0, and NaHCO3 25. The K-H solution was continuously gassed with 95% oxygen and 5% CO2, and the pH was adjusted to a value of 7.4. To perfuse the heart by the Langendorff method, the transected aorta was slid onto a glass cannula and secured by a ligature. Retrograde perfusion of the aorta was initiated immediately at a constant flow of 10 ml min-′ with modified K-H solution warmed to 36.0±0.5° C. A side port in the cannula was used to connect the perfusion line to a Gould pressure transducer for measurement of coronary perfusion pressure. Coronary perfusion pressure was continuously recorded on a strip chart (Gould RS3400, Cleveland, Ohio) throughout each experiment. Coronary conductance (in ml min^−1 mmHg^−1) was calculated as the ratio of coronary flow (10 ml min^−1) to perfusion pressure (mm Hg). To facilitate the exit of fluid from the left ventricle, the leaflets of the mitral valve were trimmed with fine spring-handled scissors. When appropriate, hearts were paced at a constant rate using external electrodes. After completion of dissection and instrumentation (see below) for measurement of either atrial rate, stimulus-to-His bundle (S-H) interval, monophasic action potentials, or coronary perfusion pressure, each heart was allowed to equilibrate for 20-40 min before the administration of drug. Experimental interventions were always preceded and followed by control measurements. Criteria for exclusion of hearts from study were (1) a coronary perfusion pressure of less than 50 mm Hg, (2) absence of a stable coronary perfusion pressure during the equilibration period, and (3) inability to pace a heart at a constant rate throughout an experiment.

[2] = tested on: guinea pig isolated heart; test: A-V nodal conduction time / S-H interval, isolated perfused heart; settings: for second-degree AV block: CPA at 30 nM, Compound 6 at all tested concentrations; for concentration causing an increase of the S-H interval by 13 msec: comparable submaximal responses
Protocol: This method evaluates the potencies of compounds to cause coronary vasodilation (A2A AdoR response) and to prolong A-V nodal conduction time (A1 AdoR response).
Rats and guinea pigs, of either sex weighing from 230 to 260 grams and 300 to 350 grams, respectively, were used in this study. Animals were anesthetized by peritoneal injection of a cocktail containing ketamine and xylazine (ketamine 100 mg, xylazine 20 mg/ml). The chest was opened and the heart quickly removed. The heart was briefly rinse in ice-cold Krebs-Henseleit solution (see below), and the aorta cannulated. The heart was then perfused at a flow rate of 10 ml/min with modified Krebs-Henseleit (K-H) solution containing NaCl 117.9, KCl 4.5, CaCl2 2.5, MgSO4 1.18, KH2PO4 1.18, pyruvate 2.0 mmol. The K-H solution (pH 7.4) was gassed continuously with 95% O2 and 5% CO2 and warmed to 35±0.50° C. The heart was electrically paced at a fixed cycle length of […] (250 beats/min) using a bipolar electrode place on the left atrium. The electrical stimuli were generated by a Grass stimulator (Model S48, W. Warwick, R.I.) and delivered through a Stimuli Isolation Unit (Model SIU5, Astro-Med, Inc., NY) as square-wave pulses of 3-msec in duration and amplitude of at least twice the threshold intensity.
A1 adenosine receptor-mediated depression of A-V nodal conduction time (negative dromotropic effect) was measured. Atrial and ventricular surface electrograms in rats and His bundle electrogram in guinea pigs, were recorded during constant atrial pacing.
The effects of compounds on coronary conductance (A2A effect) and atrioventricular conduction time or stimulus-to-His-bundle (S-H) interval (A1 effect) was then determined. Hearts were instrumented for continuous recording of coronary perfusion pressure (A2A response) and atrioventricular (A-V) conduction time or S-H interval (A1 response). In each experiment, concentration-response relationship of compounds to increase coronary conductance and to prolong A-V conduction time or S-H interval was determined. After control measurements of CPP and A-V conduction time or S-H interval were made, progressive higher concentrations of the compound studied was administered until maximal coronary vasodilation and A-V nodal conduction time or S-H interval prolongation were achieved.
as §1, with “After completion of dissection and instrumentation (see below) for measurement of either atrial rate, stimulus-to-His bundle (S-H) interval, monophasic action potentials, or coronary perfusion pressure, each heart was allowed to equilibrate for 20-40 min before the administration of drug. Experimental interventions were always preceded and followed by control measurements. Criteria for exclusion of hearts from study were (1) a coronary perfusion pressure of less than 50 mm Hg, (2) absence of a stable coronary perfusion pressure during the equilibration period, and (3) inability to pace a heart at a constant rate throughout an experiment.” left out

[3] = tested on: guinea pig isolated heart; test: Spontaneous atrial rate, isolated heart; settings: for atrial rate: maximal effect, controls 195±6 (Compound 6) and 198±15 (CPA)
Text: as §1
To measure spontaneous atrial rate in hearts that were not paced, a unipolar electrode was placed on the right atrium. A total of 10 atrial beats before, during, and after each intervention was recorded on chart paper moving at a rate of 50 mm per sec, and the average atrial rate at each time was determined from these records.

## OC[C@H]1O[C@@H](n2cnc3c(NC4CCCC4)ncnc32)[C@H](O)[C@@H]1O [CPA, N^6-cyclopentyladenosine, reference compound]
[1]; CPA maximal, control 0.16±0.01
  coronary conductance: 0.33±0.01 ml min^−1 mmHg-^1
[1]; read-out: concentration of half-maximal increase of coronary conductance
  EC50: 71 nM
[1]
  maximal increase of coronary conductance: 0.17±0.02 ml min^−1 mmHg^−1
[2]; CPA 30 nM, control 44±1 msec
  S-H interval: 87 ± 2 ms
[2]; CPA 10 μM as printed, control 42±1 msec
  S-H interval: 59 ± 4 ms
[2]; CPA 15 μM as printed, control 42±1 msec
  S-H interval: 81 ± 6 ms
[2]; CPA 20 μM as printed, control 42±1 msec
  S-H interval: 103 ± 8 ms
[2]
  second-degree AV block: second-degree AV block occurred in all hearts; also recorded: caused second-degree AV block in all hearts
  concentration causing an increase of the S-H interval by 13 msec: 10 nM
[2]; Table 5, 2759 = CVT-2759
  S-H interval Efficacy: Full (Potent)
[3]; Cavia porcellus, read-out: EC50 to decrease atrial rate
  EC50: 68 nM
[3]
  atrial rate: 1±1 beats per minute

## CNC(=O)OC[C@H]1OC(n2cnc3c(N[C@@H]4CCOC4)ncnc32)[C@H](O)[C@@H]1O (stereo partly drawn) [Compound 6 of Example 2, [(5-{6-[((3R)oxolan-3-yl)amino]purin-9-yl}(3 S,2R,4R)-3,4-dihydroxyoxolan-2-yl)methoxy]-N-methylcarboxamide]
[1]; 10 μM compound, control 0.17±0.01
  coronary conductance: 0.185±0.01 ml min^−1 mmHg^−1
[1]; 100 μM compound, control 0.17±0.01
  coronary conductance: 0.26±0.02 ml min^−1 mmHg^−1
[1]; estimate may be falsely low, limited solubility, read-out: concentration of half-maximal response (EC50), increase of coronary conductance
  EC50: 31000 nM
[1]; concentrations ≦10 μM
  effect on coronary conductance: did not significantly change the coronary conductance
[1]
  maximal increase of coronary conductance: 0.09±0.01 ml min^−1 mmHg^−1
[2]
  concentration at which effect on S-H interval reached a maximum: 30 to 100 µM
  second-degree AV block: did not cause second-degree A-V block in any heart
  concentration causing an increase of the S-H interval by 13 msec: 10,000 nM
[2]; 10 μM compound
  antagonism of S-H interval prolongation induced by CPA: partially reversed the S-H interval prolongation induced by CPA
  increase of the S-H interval: 12 ms
[2]; 10 μM compound in the presence of 50 nM CPX
  increase of the S-H interval: 4 ms
[2]; 10 μM compound in the presence of iodotubercidin and EHNA
  decrease of S-H interval: 16 ms
[2]; 10 μM compound in the presence of iodotubercidin and EHNA (80±6 msec before)
  S-H interval: 64 ± 2 ms
[2]; 10 μM compound, control 46±2 msec
  S-H interval: 58 ± 2 ms
[2]; Cavia porcellus, electrically paced heart, read-out: EC50 to increase the S-H interval
  EC50: 3100 nM
[2]; control 45±1 msec
  S-H interval at maximum effect: 60 ± 3 ms
[2]; electrically paced heart
  maximum increase of S-H interval: 33%
[2]; presence of 4 μM Compound 6 of Example 2
  adenosine concentration causing second-degree AV block: 8 µM
[2]; presence of 10 μM Compound 6 of Example 2
  adenosine concentration causing second-degree AV block: 20 µM
[3]
  atrial rate: 169±7 beats per minute
[3]; spontaneously-beating hearts
  decrease of atrial rate: 13%
